Reference: a melting point compilation (Tetko et al.; mined from patent text by program, amines drawn as free bases though some values may be those of a salt)

SMILES | melting point
COc1ccc2oc(C(O)Cc3ccccc3)cc2c1 (stereo not given) | 69 to 70 °C
CC(=O)Nc1ccc2c(c1)OCO2 | 138 to 139 °C
COc1ccc(-c2sc3c(c2OC(C)=O)CCCC3)cc1 | 81 °C
Cn1cc(S(N)(=O)=O)c(=O)c2ccccc21 | 230 to 231 °C
COC(=O)c1ccc(-c2ccc(OC)cc2)cc1 | 170 to 173 °C
CC(=O)NC(CCCCCCCCC(NC(C)=O)C1CCCCCCC1)C1CCCCCCC1 (stereo not given) | 144 to 149 °C
COc1cc(CO)c([N+](=O)[O-])cc1OCCCC(=O)O | 172 to 175 °C
COc1nc(C)cnc1NS(=O)(=O)c1cccnc1-c1ccc(OCC(C)(C)O)cc1 | 156 to 157 °C
CC(C)(CNc1ccnc2cc(Cl)ccc12)NCc1ccc(Cl)c(C(F)(F)F)c1 | 158 to 160 °C
CCOC(=O)c1c(O)c2cc(F)ccc2c(=O)n1CC1CC1 | 61 to 62 °C
Cc1ccc(C)n1Nc1ccc(N2CCSCC2)nn1 | 203 °C
O=C(Nc1ccc2c(c1)OC(F)(F)O2)N1CC(c2ccc(Cl)cc2)=C(c2ccc(Cl)cc2)N1 | 150 to 155 °C
COC(=O)c1cn2c(-c3ccc(-c4ccccc4)cc3)csc2n1 | 186 to 188 °C
CC1(C)COC(=O)N1c1nc(-c2ccc(Br)cc2)cs1 | 165 to 167 °C
CC(=O)OCC(O)(CN(C)S(=O)(=O)c1ccc(Cl)c(C)c1)c1cccc(Cl)n1 (stereo not given) | 92 to 93 °C
COC(=O)c1cc(-c2ncnc(C(F)F)c2Cl)c(F)cc1Cl | 100 to 101 °C
COC1c2c(c(C)nn2-c2ccccn2)C(=O)CC1(C)C (stereo not given) | 86 to 89 °C
CC(=O)c1ccc(OCc2ccccc2)cc1O | 107 to 108 °C
COC(=O)CC(c1ccc(OC)c(OC)c1)N1C(=O)C2CCCCC2C1=O (stereo not given) | 92.5 to 95 °C
CC1(C(=O)O)CCCc2cc(C3CCCCC3)c(Cl)cc21 (stereo not given) | 167 to 168 °C
CCCCCCCCc1ccc(C(O)CCCCCC(=O)OC)cc1 (stereo not given) | 49 to 50 °C
CC(C)(O)CCOc1c(-c2ccc(S(N)(=O)=O)cc2)cnn(-c2ccc(F)c(Cl)c2)c1=O | 59 to 62 °C
COC(=O)c1ccc(Cl)c(NN)c1 | 218 to 220 °C
O=C1NCC(CN2CCN(c3cccc(C(F)(F)F)c3)CC2)O1 (stereo not given) | 122 to 124 °C
CC(=O)Nc1ccc(S(=O)(=O)Cc2cccc(OC(C)=O)c2)c2cccnc12 | 179 to 182 °C

SMILES | melting point
COc1ccccc1-n1c(=O)[nH]c2c(C(N)=O)nc(-c3cccc(C(F)(F)F)c3)nc21 | 271 to 275 °C
CC(C)NCCNC(=O)c1ccc(OCc2ccc(-c3ccccc3)cc2)cc1 | 150 to 154 °C
CC(Oc1cc(F)cc(F)c1)C1=NCCN1 (stereo not given) | 134 °C
CC(C)CSc1ccc(-c2nc(=O)c3ccccc3s2)cn1 | 92.8 to 93.1 °C
CC(C)(C)NS(=O)(=O)c1ccc(Cl)c(CBr)c1Cl | 157 °C
c1ccc(-c2ccc3[nH]c4c(c3c2)CCNCC4)cc1 | > 250 °C
CCCCCCCCCCCCCCCC(=O)Nc1cc(C(=O)O)ccc1C | 238 to 240 °C
CC(=O)Nc1nc(CCc2ccc(CON)cc2)cs1 | 130 °C
COc1cccc2c1C(NC1=Nc3ccc(Nc4nnc(C)o4)cc3CO1)CC2 (stereo not given) | 162 °C
CCOC(=O)C1=C(COCC(C)(O)c2ccco2)NC(C)=C(C(=O)OC)C1c1cccc(Cl)c1Cl (stereo not given) | 88 to 90 °C
CC(NC(Nc1ccc2c(c1)OCO2)=C(C#N)S(=O)(=O)c1ccc(Cl)cc1)C(C)(C)C (stereo not given) | 160 to 162 °C
C=CCCCCCCCCCOc1ccc(-c2ccc(O)cc2)cc1 | 135 to 136 °C
CC(C)CCC(O)C(CC1CCCCC1)NC(=O)C(Cc1c[nH]cn1)N(C)C(=O)C(Cc1ccccc1)OC(=O)N1CCOCC1 (stereo not given) | 91 to 95 °C
COC(=O)[C@@H]1CCCC[C@H]1C[C@@H](O)[C@H](Cc1ccccc1)NC(=O)OC(C)(C)C | 127 to 128 °C
Cn1ccc(-c2ccc3c(ccn3-c3ccc(F)cc3)c2)n1 | 123 to 125 °C
COc1c(C)cnc(CSc2nc3ncccc3[nH]2)c1C | 186 to 188 °C
CS(=O)(=O)N1CCC(CCC(=O)c2ccc3c(c2)CCN(Cc2ccccc2)CC3)CC1 | 134 to 137 °C
COc1cc(NC(=O)Oc2ccccc2)ccc1S(=O)(=O)n1c(=O)n(C2CCCCC2)c2cc(Cl)ccc21 | 236 °C
Cc1cc(C)nc(Oc2ccc(-c3ccn(CC4CC4)c(=O)c3C#N)c(F)c2)c1 | 137 °C
CCOC(=O)c1cnn(-c2c(F)cc(C(F)(F)F)cc2Cl)c1N | 147 to 149 °C
O=C(O)c1ccc(OCc2cccc(Cl)c2)cn1 | 176 to 177 °C
CC1(C)COP(=O)(OC(C#N)c2cccc(Oc3ccccc3)c2)OC1 (stereo not given) | 140 °C
O=C(Nc1cccc(F)c1)c1ccccn1 | 74 to 78 °C
CCCc1cc(Cl)c2oc(Cc3ccc(OC)cc3)c(C)c2c1OC(C)=O | 119 to 120 °C
O=Cc1ccccc1OCC(=O)NCCO[N+](=O)[O-] | 99 to 101 °C

SMILES | melting point
Cc1cccc(NC(=O)NC(C)C(=O)N(c2ccccc2)c2ccccc2)c1 (racemic) | 82 °C
CCOC(=O)c1c(SCC(=O)COC(C)=O)nc2c(F)c(F)c(F)cc2c1O | 175 to 180 °C
Cc1c(Br)cccc1N1Cc2cc(C(C)(C)C)sc2C1=O | 185 to 186 °C
CN1C(=S)NN2CCCC21c1ccccc1 (stereo not given) | 148 to 151 °C
O=C(O)c1cccc(NC(=O)C(CS)CC2CN(Cc3ccccc3)CCO2)c1 (stereo not given) | 110 to 112 °C
CCC(C)N(C)C(=O)c1cc(-c2ccc(C)c(C)c2)c2sccc2c1 (stereo not given) | 120 °C
Cc1c(-c2ccc(C(C)(C)C)cc2)[nH]c2nccnc12 | 213 to 214 °C
N#Cc1ccc2c(OCc3ccccc3)cc(C(=O)O)cc2c1 | 235 °C
CCc1cccc(C)c1CNc1cc(C(=O)N(C)C)cc2c1nc(COC)n2C | 154 °C
COC(CN(C)C(=O)Nc1nnc(C(C)Oc2ccc(Cl)cc2)s1)OC (stereo not given) | 116 to 118 °C
CC[Si](C#CC1(CO)OC(n2ccc(=O)[nH]c2=O)C(O)C1O)(CC)CC (stereo not given) | 183 to 186 °C
OCCCOC(c1ccccc1)c1ccccc1 | 140 to 141 °C
CC[C@@H](NC(=O)CCCCl)C(N)=O | 118 to 123 °C
COc1cc(C#N)ccc1C=NO | 170 to 171 °C
Cc1cc(Oc2ncc(C(F)(F)F)cc2Cl)nn1C(=O)Nc1ccc(Cl)c(Cl)c1 | 150 to 152 °C
Nc1ccc(C(=O)CCCCOCc2ccccc2)cc1 | 72 °C
COCCN1Cc2cc(C(=O)O)ccc2N(C)C(CC(=O)O)C1=O (stereo not given) | 228 to 230 °C
O=C(Nc1ccc(F)cc1F)Nc1oc(=O)c2ccc(Cl)cc2c1-c1ccccc1 | 196 to 197 °C
CC(Cl)c1nc2c(C(F)(F)F)cccc2c(=O)o1 (stereo not given) | 112 °C
COC(OC)C1CN=C(c2cc3cccc(NS(=O)(=O)c4ccccn4)c3[nH]2)S1 (stereo not given) | 153 °C
CCNc1nc2ccccc2n2c(C(C)C)nnc12 | 209 to 211 °C
Cc1cc(-c2nc3cccnn3c2-c2ccnc(N)c2)ccc1F | 179 to 180 °C
O=C(O)CN1C(=O)c2cccc3c(Sc4ccccc4)ccc(c23)C1=O | 250 to 253 °C
O=S(=O)(NC(=S)NC1CCCCC1)c1cnccc1NC1CCCCCC1 | 195 to 197 °C
Cc1cc2cc(CN3CCCC3)cnc2cc1NC(=O)c1ccc(-c2ccco2)cc1 | 154 °C

SMILES | melting point
CC(C)CC(CN(C)C)(C(=O)O)C(=O)O | 134 to 137 °C
CNC(=C[N+](=O)[O-])NCCSCc1csc(CO)n1 | 131 to 132 °C
c1ccc(CCN2CCc3[nH]c4ccc5scc(-c6ccccc6)c5c4c3C2)cc1 | 220 to 221 °C
CCOC(=O)c1cc(O)cc(OCC)c1 | 62 to 63 °C
CC1(c2ccc(O)cc2)Cc2cc(OCC(=O)O)c(Cl)c(Cl)c2C1=O (stereo not given) | 220 to 222 °C
COc1ccc(C2=NN(Cc3ccccc3Cl)C(=O)[C@H]3CCCC[C@@H]23)cc1OC (relative stereo) | 101 to 104 °C
O=C(c1ccccc1)c1ccc(-c2nc(COc3ccc(CCCCn4ccnc4)cc3)co2)cc1 | 91 to 92 °C
C(=C\c1nc(COc2ccc(CCCn3ccnc3)cc2)cs1)/c1ccccc1 | 129 to 130 °C
CCCCOCCOc1ccc(-c2ccc3c(c2)C=C(C(=O)Nc2ccc(CS(=O)c4nncn4C)cc2)CCN3CC(C)C)cc1 (stereo not given) | 87 to 89 °C
CCOC(=O)Cc1ccc(NC(=O)C(Cn2ccnc2)NS(=O)(=O)c2ccc(F)cc2)cc1 (racemic) | 155 to 157 °C
COc1cc(F)ccc1-c1ccc(S(=O)(=O)N2c3ccccc3CC2C(=O)O)cc1 (stereo not given) | 93 to 100 °C
CN1CC=C(c2c[nH]c3ccc(NC(=O)c4ccc(F)cc4Cl)cc23)CC1 | 212 to 222 °C
CCOP(=O)(Cc1ccc(NC(=O)/C=C/c2c(C)noc2-c2ccccc2)cc1)OCC | 155 to 156 °C
NC(=O)c1[nH]c2ccc(Cl)cc2c1S(=O)(=O)c1ccccc1Cl | 267 °C
COc1ccc2cc(C(=O)C(C)OS(=O)(=O)c3ccc(C)cc3)ccc2c1 (stereo not given) | 85 to 87 °C
CCS(=O)(=O)c1nnc(N(C(C)=O)C(=O)N(C)C)s1 | 145 °C
C#CC[C@H](c1nc2cc(Cl)ccc2c(=O)n1Nc1ccccc1)N(CCCN1C(=O)c2ccccc2C1=O)C(=O)c1cccc(Cl)c1F | 130 to 132 °C
CCCCCCCCCCCCOC(=O)c1ccc(Cl)c(N)c1 | 58.3 to 59.5 °C
COc1ccc(-c2ccco2)c2c1c(CCN(C)C)cn2C | 90 to 93 °C
COC(=O)c1cc([N+](=O)[O-])ccc1-c1ccc([N+](=O)[O-])cc1C(=O)OC | 176 to 177 °C
COc1cc(Oc2ccc(C(=O)N(C3CCCCC3)C3CCCC3)cc2)cc(OC)c1OC | 166 °C
Cc1c(-c2ccccc2)oc2c(S(=O)(=O)Cl)cccc2c1=O | 165 to 170 °C
COc1ccc(C2=NN(C3CCN(C(=O)CCCOc4ccc5[nH]c(=O)ccc5c4)CC3)C(=O)CC2)cc1OC | 169 to 171 °C
CC(C)(C)c1ncc(O)cn1 | 132 °C
O=C(O)CN1C(=O)c2cccc3c(Sc4ccccc4C(=O)O)ccc(c23)C1=O | 339 to 341 °C
